Source: patent publication US10428083B2, “Heterocyclylmethyl-thienouracile as antagonists of the adenosine-A2B-receptor” (BAYER PHARMA AKTIENGESELLSCHAFT, priority 2015, dated 2019)

Biological target: human adenosine A2b receptor (Homo sapiens (Human), UniProt P29275)
Assay: Cellular in vitro reporter gene test for A2b receptor activity (CHO-K1, CRE-luciferase, NECA stimulation)
Format: cell-based
Details: recombinant CHO-K1 cell line, CRE-luciferase reporter, antagonism of EC50 concentration of NECA; in some cases means of several determinations, rounded to two significant figures; read-out: A2b receptor IC50
Summary of the method: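 CHO-K1 cells with CRE-driven luciferase; antagonists co-incubated with NECA at its EC50, determined in a pre-experiment on each test day. Luciferase read by luminescence 3 h after NECA addition.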

Sequence of human adenosine A2b receptor (P29275 whole entry): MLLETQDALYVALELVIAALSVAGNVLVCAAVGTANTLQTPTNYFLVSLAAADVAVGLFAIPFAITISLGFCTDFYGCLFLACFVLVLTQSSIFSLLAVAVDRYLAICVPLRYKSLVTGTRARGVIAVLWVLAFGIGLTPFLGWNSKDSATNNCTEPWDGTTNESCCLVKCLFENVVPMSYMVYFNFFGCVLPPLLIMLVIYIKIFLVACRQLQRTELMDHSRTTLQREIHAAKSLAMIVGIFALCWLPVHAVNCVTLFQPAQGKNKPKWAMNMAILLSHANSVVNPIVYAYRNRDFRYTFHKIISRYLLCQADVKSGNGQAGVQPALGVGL

| SMILES | IC50 [nM] |
| --- | --- |
| Cc1c(CN2CCNC2=NC#N)sc2c1c(=O)n(CC(F)(F)F)c(=O)n2CC1CCCO1 (single isomer, unassigned) [Example 361, [1-{[5-Methyl-2,4-dioxo-1-(tetrahydrofuran-2-ylmethyl)-3-(2,2,2-trifluoroethyl)-1,2,3,4-tetrahydrothieno[2,3-d]pyrimidin-6-yl]methyl}imidazolidin-2-ylidene]cyanamide] | 13 |
| Cc1c(CN2CCNC2=NC#N)sc2c1c(=O)n(C(C)C)c(=O)n2CC1CCCO1 (racemic) [Example 267, [1-{[3-Isopropyl-5-methyl-2,4-dioxo-1-(tetrahydrofuran-2-ylmethyl)-1,2,3,4-tetrahydrothieno[2,3-d]pyrimidin-6-yl]methyl}imidazolidin-2-ylidene]cyanamide] | 4.6 |
| CCn1c(=O)c2c(C)c(CN3CCCCC3=O)sc2n(CCC(F)(F)F)c1=O [Example 12, 3-Ethyl-5-methyl-6-[(2-oxopiperidin-1-yl)methyl]-1-(3,3,3-trifluoropropyl)thieno[2,3-d]pyrimidine-2,4(1H,3H)-dione] | 12 |
| COCCn1c(=O)n(C(C)C(F)(F)F)c(=O)c2c(C)c(CN3CCNC(=O)C3=O)sc21 (racemic) [Example 491, 6-[(2,3-Dioxopiperazin-1-yl)methyl]-1-(2-methoxyethyl)-5-methyl-3-(1,1,1-trifluoropropan-2-yl)thieno[2,3-d]pyrimidine-2,4(1H,3H)-dione] | 52 |
| Cc1c(Cn2[nH]ccc2=O)sc2c1c(=O)n(CC(F)(F)F)c(=O)n2CCC(F)(F)F [Example 282, 5-Methyl-6-[(5-oxo-2,5-dihydro-1H-pyrazol-1-yl)methyl]-3-(2,2,2-trifluoroethyl)-1-(3,3,3-trifluoropropyl)thieno[2,3-d]pyrimidine-2,4(1H,3H)-dione] | 30 |
| CCn1c(=O)c2c(C)c(Cn3[nH]ccc3=O)sc2n(CC2CCCO2)c1=O (single isomer, unassigned) [Example 130, 3-Ethyl-5-methyl-6-[(5-oxo-2,5-dihydro-1H-pyrazol-1-yl)methyl]-1-(tetrahydrofuran-2-ylmethyl)thieno[2,3-d]pyrimidine-2,4(1H,3H)-dione] | 30 |
| CCn1c(=O)c2c(C)c(CN3CCNC3=O)sc2n(CCSC(F)(F)F)c1=O [Example 58, 3-Ethyl-5-methyl-6-[(2-oxoimidazolidin-1-yl)methyl]-1-{2-[(trifluoromethyl)sulphanyl]ethyl}thieno[2,3-d]pyrimidine-2,4(1H,3H)-dione] | 2.6 |
| COC(=O)N=C1NCCN1Cc1sc2c(c1C)c(=O)n(CC(C)(C)C)c(=O)n2CC1CCCO1 (single isomer, unassigned) [Example 464, Methyl [1-{[3-(2,2-dimethylpropyl)-5-methyl-2,4-dioxo-1-(tetrahydrofuran-2-ylmethyl)-1,2,3,4-tetrahydrothieno[2,3-d]pyrimidin-6-yl]methyl}imidazolidin-2-ylidene]carbamate] | 9.9 |
| COCCn1c(=O)c2c(C)c(Cn3cc[nH]c3=O)sc2n(CC2CCCO2)c1=O (single isomer, unassigned) [Example 348, 3-(2-Methoxyethyl)-5-methyl-6-[(2-oxo-2,3-dihydro-1H-imidazol-1-yl)methyl]-1-(tetrahydrofuran-2-ylmethyl)thieno[2,3-d]pyrimidine-2,4(1H,3H)-dione] | 48 |
| COCCn1c(=O)n(CC(F)(F)F)c(=O)c2c(C)c(CN3CCNC3=NC#N)sc21 [Example 268, [1-{[1-(2-Methoxyethyl)-5-methyl-2,4-dioxo-3-(2,2,2-trifluoroethyl)-1,2,3,4-tetrahydrothieno[2,3-d]pyrimidin-6-yl]methyl}imidazolidin-2-ylidene]cyanamide] | 12 |
| CCn1c(=O)c2c(C)c(C(C)N3CCNC3=O)sc2n(CCC(F)(F)F)c1=O (racemic) [Example 416, 3-Ethyl-5-methyl-6-[1-(2-oxoimidazolidin-1-yl)ethyl]-1-(3,3,3-trifluoropropyl)thieno[2,3-d]pyrimidine-2,4(1H,3H)-dione] | 79 |
| CCn1c(=O)c2c(C)c(CN3CCNC3=S)sc2n(CC(F)F)c1=O [Example 137, 1-(2,2-Difluoroethyl)-3-ethyl-5-methyl-6-[(2-thioxoimidazolidin-1-yl)methyl]thieno[2,3-d]pyrimidine-2,4(1H,3H)-dione] | 10 |
| COCCn1c(=O)c2c(C)c(Cn3cc[nH]c3=O)sc2n(CC2CCCO2)c1=O (single isomer, unassigned) [Example 347, 3-(2-Methoxyethyl)-5-methyl-6-[(2-oxo-2,3-dihydro-1H-imidazol-1-yl)methyl]-1-(tetrahydrofuran-2-ylmethyl)thieno[2,3-d]pyrimidine-2,4(1H,3H)-dione] | 56 |
| COC(=O)N=C1NCCN1Cc1sc2c(c1C)c(=O)n(CC(C)OC)c(=O)n2CCC(F)(F)F (racemic) [Example 472, Methyl [1-{[3-(2-methoxypropyl)-5-methyl-2,4-dioxo-1-(3,3,3-trifluoropropyl)-1,2,3,4-tetrahydrothieno[2,3-d]pyrimidin-6-yl]methyl}imidazolidin-2-ylidene]carbamate] | 6.7 |
| CCn1c(=O)c2c(C)c(CN3CCOC3=O)sc2n(CCC(F)(F)F)c1=O [Example 21, 3-Ethyl-5-methyl-6-[(2-oxo-1,3-oxazolidin-3-yl)methyl]-1-(3,3,3-trifluoropropyl)thieno[2,3-d]pyrimidine-2,4(1H,3H)-dione] | 5.1 |
| [2H]C([2H])(c1sc2c(c1C)c(=O)n(C(C)C)c(=O)n2CCOC)N1CCNC1=NC#N [Example 512, [1-{[3-Isopropyl-1-(2-methoxyethyl)-5-methyl-2,4-dioxo-1,2,3,4-tetrahydrothieno[2,3-d]pyrimidin-6-yl](dideutero)methyl}imidazolidin-2-ylidene]cyanamide] | 5.1 |
| C=C(C)CCn1c(=O)c2c(C)c(CN3CCNC3=O)sc2n(CCOC)c1=O [Example 319, 1-(2-Methoxyethyl)-5-methyl-3-(3-methylbut-3-en-1-yl)-6-[(2-oxoimidazolidin-1-yl)methyl]thieno[2,3-d]pyrimidine-2,4(1H,3H)-dione] | 2.4 |
| CCn1c(=O)c2c(C)c(CN3CCNC3=O)sc2n(CC2CCCCO2)c1=O (single isomer, unassigned) [Example 180, 3-Ethyl-5-methyl-6-[(2-oxoimidazolidin-1-yl)methyl]-1-(tetrahydro-2H-pyran-2-ylmethyl)thieno[2,3-d]pyrimidine-2,4(1H,3H)-dione] | 30 |
| COCCn1c(=O)n(CCc2ccccc2)c(=O)c2c(C(F)(F)F)c(CN3CCN(C)C3=O)sc21 [Example 105, 1-(2-Methoxyethyl)-6-[(3-methyl-2-oxoimidazolidin-1-yl)methyl]-3-(2-phenylethyl)-5-(trifluoromethyl)thieno[2,3-d]pyrimidine-2,4(1H,3H)-dione] | 14 |
| CCn1c(=O)c2c(C)c(CN3CCNC3=O)sc2n(CCOC(C)C)c1=O [Example 61, 3-Ethyl-1-(2-isopropoxyethyl)-5-methyl-6-[(2-oxoimidazolidin-1-yl)methyl]thieno[2,3-d]pyrimidine-2,4(1H,3H)-dione] | 53 |
| CCn1c(=O)c2c(C)c(CN3CCNC3=O)sc2n(CCOC2CC2)c1=O [Example 178, 1-[2-(Cyclopropyloxy)ethyl]-3-ethyl-5-methyl-6-[(2-oxoimidazolidin-1-yl)methyl]thieno[2,3-d]pyrimidine-2,4(1H,3H)-dione] | 21 |
